The test system of data set [1] is sound induced seizures in DBA/2J audiogenic mice. The data set is described as follows: inhibition of sound induced seizures in audiogenic mice (anti-epileptic activity). Conditions: two hours before 110 decibels sound for 30 seconds, 120 min. The class given is in vivo.
Text: One method for evaluating the potential anti-epileptic activity of selected compounds is by their ability to inhibit sound induced seizures in audiogenic mice. DBA/2J audiogenic mice experience seizures when exposed to loud noises. Compounds which prevent this phenomenon are considered to be antiepilpetic agents.
Two hours after administration, they were placed individually in glass jars and exposed to a sound stimulus of 110 decibels for 30 seconds. Each mouse was observed during the sound exposure for signs of seizure activity. A graph was prepared based upon the dose administered and the percentage of animals protected at that dose. An ED50 was calculated from the graph. In some mice the test was performed with the only modification being the addition of 100 mg/kg of probenecid IP.
The test was conducted in the following manner.
Five minutes after administration, they were placed individually in glass jars and exposed to a sound stimulus of 110 decibels for 30 seconds. Each mouse was observed during the sound exposure for signs of seizure activity. A graph was prepared based upon the dose administered and the percentage of animals protected at that dose. An ED50 was calculated from the graph. The test was also performed in separate mice with the only modification being the addition of 100 mg/kg or 200 mg/kg of probenecid IP.
Data set [2] relates to quinolinic acid induced clonic seizures in mice. Briefly: inhibition of quinolinic acid (intracerebroventricular) induced clonic seizures in mice. The class given is in vivo. Here is the method:
The intracerebroventricular administration of quinolinic acid induces clonic seizures in mice.
In this test, groups of 10 mice were pretreated intravenously with varying doses of R-4-Oxo-5-phosphononorvaline(hereinafter compound) ranging from 1 to 16 mg/kg. Five minutes later the mice were administered 7.7 micrograms of quinolinic acid intracerebroventricularly in a volume of 5 microliters of saline. […] A graph was prepared based upon the dose administered and the percentage of animals protected at that dose. An ED50 was calculated from the graph. The test was then repeated in separate mice with the only modification being the addition of 100 mg/kg of probenecid IP. The following ED50 's were obtained.
The protocol described above was repeated except that the compounds was administered intraperitoneally (dosage ranging from 0.5 to 32 mg/kg) and the pretreatment time was extended to 30 minutes. The following ED50 's were obtained.

For data set [3] the following is noted: sodium salt; cited from earlier work.

Where a name gives a salt, the structure may show the parent alone. Read-outs that look alike come from different tables or passages of the source.

For the molecule “3-[(phenacyl)methylamino]-2-carboxy-4,6-dichloroindole”, the ED50 in data set [1] (compound alone, i.p. 25 to 400 mg/kg) worked out at 183.7 mg/kg; in data set [1] (compound i.p. + 100 mg/kg probenecid IP), 45.4 mg/kg.
Turning to `N[C@H](CC(=O)CP(=O)(O)O)C(=O)O` [R-4-Oxo-5-phosphononorvaline], the ED50 in data set [2] (Mus musculus, 5 min, compound alone, intravenous 1 to 16 mg/kg, five minutes before quinolinic acid 7.7 micrograms icv, read-out: ED50) turned out to be 4 mg/kg; in data set [2] (Mus musculus, ip, 0.5 h, compound alone, intraperitoneal 0.5 to 32 mg/kg, 30 minutes pretreatment, read-out: ED50), 16.3 mg/kg; in data set [2] (compound intraperitoneal + probenecid (protocol as before: 100 mg/kg IP), 30 minutes pretreatment), 8.0 mg/kg; in data set [2] (compound intravenous + 100 mg/kg probenecid IP, five minutes before quinolinic acid 7.7 micrograms icv, 5 min) it was 2.3 mg/kg.
For `CCCN(CCC)S(=O)(=O)c1ccc(C(=O)O)cc1` [sodium salt of probenecid], the water solubility entry in data set [3] is recorded as “readily water soluble”.

The values are drawn from US5318985A, “Potentiation of NMDA antagonists” (Merrell Dow Pharmaceuticals Inc., priority 1991, dated 1994).
